From patent publication US12522594B2, “2-heteroaryl-3-oxo-2,3-dihydropyridazine-4-carboxamides for the treatment of cancer” (Deutsches Krebsforschungszentrum, priority 2017, dated 2026)

How the values were obtained:
Format in all cases: cell-based
AHR [1] = target: T1, AHR (Homo sapiens, UniProt P35869); assay: In vitro assay 1: antagonism in human cell line (transactivation assay, U87 cells prestimulated with kynurenic acid, DRE firefly luciferase reporter); design: host or cells: U87 glioblastoma cells, stably transfected with DRE firefly luciferase and renilla reporter constructs; details: 150 uM kynurenic acid, 20 hours, read-out: Assay 1: AHR-luc Hum Antagonism IC50
T1 sequence (P35869 11-848): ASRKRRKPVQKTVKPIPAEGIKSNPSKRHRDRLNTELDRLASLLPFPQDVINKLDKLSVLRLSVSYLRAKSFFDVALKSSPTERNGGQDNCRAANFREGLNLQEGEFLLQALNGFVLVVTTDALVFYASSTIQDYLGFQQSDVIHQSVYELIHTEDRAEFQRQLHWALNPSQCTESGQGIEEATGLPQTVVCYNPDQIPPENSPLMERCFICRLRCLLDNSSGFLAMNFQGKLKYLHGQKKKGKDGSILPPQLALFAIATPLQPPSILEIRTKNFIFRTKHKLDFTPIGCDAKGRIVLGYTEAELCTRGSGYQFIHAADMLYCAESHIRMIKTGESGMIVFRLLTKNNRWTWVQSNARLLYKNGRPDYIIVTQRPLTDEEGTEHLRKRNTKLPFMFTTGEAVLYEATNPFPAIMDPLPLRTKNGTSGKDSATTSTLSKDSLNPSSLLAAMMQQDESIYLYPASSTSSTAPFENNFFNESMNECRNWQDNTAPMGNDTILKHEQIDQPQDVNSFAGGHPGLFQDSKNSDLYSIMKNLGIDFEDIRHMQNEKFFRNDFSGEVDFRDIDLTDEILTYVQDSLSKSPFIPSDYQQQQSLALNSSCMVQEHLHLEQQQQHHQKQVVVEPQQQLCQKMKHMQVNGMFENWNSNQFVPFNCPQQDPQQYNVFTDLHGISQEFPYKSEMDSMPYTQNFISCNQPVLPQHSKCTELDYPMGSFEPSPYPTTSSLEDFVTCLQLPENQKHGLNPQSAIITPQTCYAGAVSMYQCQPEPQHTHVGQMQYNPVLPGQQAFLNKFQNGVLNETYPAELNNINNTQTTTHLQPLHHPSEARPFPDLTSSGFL
In short: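 Antagonism measured after kynurenic acid prestimulation in U87 cells that express AHR endogenously and stably harbor a firefly luciferase gene under DRE control plus a constitutive renilla construct. Positive and negative controls served for normalization.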

AHR [2] = target: T1, AHR; assay: In vitro assay 2: agonism in human cell line (transactivation assay, U87 cells, DRE firefly luciferase reporter); design: host or cells: U87 glioblastoma cells, stably transfected with DRE firefly luciferase and renilla reporter constructs; details: no kynurenic acid, 20 hours, read-out: Assay 2: AHR-luc Hum Agonism IC50
In short: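 Agonist readout: DRE firefly luciferase, with constitutive renilla reporter, in stably transfected U87 cells expressing AHR endogenously. Normalization used positive control (300 uM kynurenic acid) and negative control.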

AHR [3] = target: T1, AHR; assay: In vitro assay 3: AHR-regulated CYP1A1 expression in human cell line (U937, qPCR, KA stimulation); details: U937 cells, 200 uM KA, 6 hours, CYP1A1 expression by qPCR; read-out: Assay 3: Hum CYP1A1 Antagonism IC50
Method: In Vitro Assay 3: AHR-Regulated CYP1A1 Expression in Human Cell Line
To assess the AHR inhibitory activity of the substances described in this application, the ability thereof to antagonise ligand-induced AHR gene regulation in a dose-dependent manner was quantified. For this purpose, quantitative PCR analysis was used to determine expression of the AHR-regulated gene CYP1A1 in a human monocytic U937 cell line upon stimulation with 200 uM KA in the presence and absence of AHR inhibitor. […] CYP1A1 expression was induced with 200 uM KA (positive control) in the presence or absence of the substances for 6 hours. Human U937 cells were typically incubated with eight different concentrations of the substances (1 nM, 3 nM, 10 nM, 30 nM, 100 nM, 300 nM, 1 uM and 3 uM) and analyzed in duplicate on the same microtitre plate. […] Unstimulated cells were used as the negative control. Taqman probes for human CYP1A1 (Hs01054797_g1) and human HPRT (Hs02800695_m1) were used to analyze fold expression of CYP1A1 of HPRT. Quantitation was performed on a Taqman SDS7900HT.

Row | IC50 (AHR [1]) [nM] | IC50 (AHR [2]) [nM] | IC50 (AHR [3]) [nM] | SMILES
1 | 6.54 | > 20000 | 6.42 | O=C(N[C@H]1CCC[C@@H]1O)c1cc(-c2ccc(Cl)cc2)nn(-c2cccnc2)c1=O [Example 130, 6-(4-Chlorophenyl)-N-[(1S,2S)-2-hydroxycyclopentyl]-3-oxo-2-(pyridin-3-yl)-2,3-dihydropyridazine-4-carboxamide]
2 | 29.6 | > 20000 | 21.5 | O=C(NCC(O)C(F)F)c1cc(-c2ccc(Cl)cc2)nn(-c2cccnc2)c1=O (single isomer, unassigned; (-)) [Example 87, (−)-6-(4-Chlorophenyl)-N-(3,3-difluoro-2-hydroxypropyl)-3-oxo-2-(pyridin-3-yl)-2,3-dihydropyridazine-4-carboxamide]
3 | 7.09 | > 20000 | 12.2 | O=C(N[C@@H]1COC[C@@H]1O)c1cc(-c2ccc(C(F)(F)F)cc2)nn(-c2cccnc2)c1=O (single isomer, unassigned) [Example 229, (+)-N-cis-4-Hydroxytetra-hydrofuran-3-yl-3-oxo-2-(pyridin-3-yl)-6-[4-(trifluoromethyl)phenyl]-2,3-dihydropyridazine-4-carboxamide]
4 | 21.7 | > 20000 | 40.2 | O=C(NCC(O)C(F)(F)F)c1cc(-c2ccc(Cl)cc2)nn(-c2cccnc2)c1=O (single isomer, unassigned; (+)) [Example 90, (+)-6-(4-Chlorophenyl)-3-oxo-2-(pyridin-3-yl)-N-(3,3,3-trifluoro-2-hydroxypropyl)-2,3-dihydropyridazine-4-carboxamide]
5 | 9.38 | > 20000 | 7.86 | O=C(NC[C@H](O)C(F)(F)F)c1cc(-c2ccc(Cl)cc2)nn(-c2cncnc2)c1=O [Example 237, 6-(4-Chlorophenyl)-3-oxo-2-(pyrimidin-5-yl)-N-[(2S)-3,3,3-trifluoro-2-hydroxypropyl]-2,3-dihydropyridazine-4-carboxamide]
6 | 3.92 | > 20000 | 6.43 | Cn1cc(-n2nc(-c3ccc(Cl)cc3)cc(C(=O)NCC(O)C(F)(F)F)c2=O)cn1 (single isomer, unassigned; (-)) [Example 19, (−)-6-(4-Chlorophenyl)-2-(1-methyl-1H-pyrazol-4-yl)-3-oxo-N-(3,3,3-trifluoro-2-hydroxypropyl)-2,3-dihydropyridazine-4-carboxamide]
7 | 35.5 | > 20000 | 22.3 | C[C@H](NC(=O)c1cc(-c2ccc(C(F)F)cc2)nn(-c2cccnc2)c1=O)C(C)(C)O [Example 319, 6-[4-(Difluoromethyl)phenyl]-N-[(2S)-3-hydroxy-3-methylbutan-2-yl]-3-oxo-2-(pyridin-3-yl)-2,3-dihydropyridazine-4-carboxamide]
8 | 26.5 | > 20000 | 122 | Cc1ccc(-c2cc(C(=O)NCC(O)C(F)F)c(=O)n(-c3cnn(C)c3)n2)cc1 (single isomer, unassigned; enantiomer 2) [Example 15, N-(3,3-Difluoro-2-hydroxypropyl)-6-(4-methylphenyl)-2-(1-methyl-1H-pyrazol-4-yl)-3-oxo-2,3-dihydropyridazine-4-carboxamide, Enantiomer 2]
9 | 18.6 | > 20000 | 10.8 | C[C@@H](CO)NC(=O)c1cc(-c2ccc(C(F)F)cc2)nn(-c2cnn(C)c2)c1=O [Example 58, 6-[4-(Difluoromethyl)phenyl]-N-[(2S)-1-hydroxypropan-2-yl]-2-(1-methyl-1H-pyrazol-4-yl)-3-oxo-2,3-dihydropyridazine-4-carboxamide]
10 | 57 | > 20000 | 97.9 | O=C(N[C@H]1COC[C@H]1O)c1cc(-c2ccc(OC(F)(F)F)cc2)nn(-c2cccnc2)c1=O (single isomer, unassigned; enantiomer 2) [Example 159, N-[(cis)-4-Hydroxytetrahydrofuran-3-yl]-3-oxo-2-(pyridin-3-yl)-6-[4-(trifluoromethoxy)phenyl]-2,3-dihydropyridazine-4-carboxamide, Enantiomer 2]
11 | 24.8 | > 20000 | 4.32 | O=C(N[C@H](CO)CF)c1cc(-c2ccc(Cl)cc2)nn(-c2cccnc2)c1=O [Example 93, (+)-6-(4-Chlorophenyl)-N-[(2R)-1-fluoro-3-hydroxypropan-2-yl]-3-oxo-2-(pyridin-3-yl)-2,3-dihydropyridazine-4-carboxamide]
12 | 28.4 | > 20000 | 38.9 | Cn1cc(-n2nc(-c3ccc(Cl)cc3)cc(C(=O)N[C@H]3COCC[C@H]3O)c2=O)cn1 [Example 61, 1,5-Anhydro-2-({[6-(4-chlorophenyl)-2-(1-methyl-1H-pyrazol-4-yl)-3-oxo-2,3-dihydropyridazin-4-yl]carbonyl}amino)-2,4-dideoxy-D-erythro-pentitol]
13 | 41.5 | > 20000 | 83.5 | Cn1cc(-n2nc(-c3ccc(Cl)cc3)cc(C(=O)N[C@@H]3COC[C@@H]3O)c2=O)cn1 (single isomer, unassigned; enantiomer 2) [Example 45, 6-(4-Chlorophenyl)-N-[(cis)-4-hydroxytetrahydrofuran-3-yl]-2-(1-methyl-1H-pyrazol-4-yl)-3-oxo-2,3-dihydropyridazine-4-carboxamide, Enantiomer 2]
14 | 13.3 | > 20000 | 24.5 | O=C(N[C@@H]1CCC[C@@H]1O)c1cc(-c2ccc(C(F)(F)F)cc2)nn(-c2cccnc2)c1=O [Example 103, N-[(1R,2S)-2-Hydroxycyclopentyl]-3-oxo-2-(pyridin-3-yl)-6-[4-(trifluoromethyl)phenyl]-2,3-dihydropyridazine-4-carboxamide]
15 | 1.5 | > 20000 | 41 | Cn1cc(-n2nc(-c3ccc(Cl)cc3)cc(C(=O)N[C@H](CO)C(F)(F)F)c2=O)cn1 [Example 35, (+)-6-(4-Chlorophenyl)-2-(1-methyl-1H-pyrazol-4-yl)-3-oxo-N-[(2R)-1,1,1-trifluoro-3-hydroxypropan-2-yl]-2,3-dihydropyridazine-4-carboxamide]
16 | 4.25 | > 20000 | 10.2 | Cc1ccc(-c2cc(C(=O)NCC(O)C(F)(F)F)c(=O)n(-c3cnn(C)c3)n2)cc1 (stereo not drawn) [Example 10, 6-(4-Methylphenyl)-2-(1-methyl-1H-pyrazol-4-yl)-3-oxo-N-(3,3,3-trifluoro-2-hydroxypropyl)-2,3-dihydropyridazine-4-carboxamide]
17 | 3.09 | > 20000 | 7.6 | C[C@@H](CO)NC(=O)c1cc(-c2ccc(Cl)cc2)nn(-c2cnsc2)c1=O [Example 194, (+)-6-(4-Chlorophenyl)-N-[(2S)-1-hydroxypropan-2-yl]-3-oxo-2-(1,2-thiazol-4-yl)-2,3-dihydropyridazine-4-carboxamide]
18 | 16.9 | > 20000 | 10.5 | CC(C)(O)CNC(=O)c1cc(-c2ccc(Cl)cc2)nn(-c2csc(Cl)c2)c1=O [Example 250, 6-(4-Chlorophenyl)-2-(5-chloro-3-thienyl)-N-(2-hydroxy-2-methylpropyl)-3-oxo-2,3-dihydropyridazine-4-carboxamide]
